Test results as given in US20210299079A1, “MONOMETHYL FUMARATE-CARRIER CONJUGATES AND METHODS OF THEIR USE” (Flagship Pioneering Innovations V, Inc., priority 2018, published 2021).

Biological target: T1, AhR (Homo sapiens, UniProt P35869)
T1 sequence (P35869 11-848): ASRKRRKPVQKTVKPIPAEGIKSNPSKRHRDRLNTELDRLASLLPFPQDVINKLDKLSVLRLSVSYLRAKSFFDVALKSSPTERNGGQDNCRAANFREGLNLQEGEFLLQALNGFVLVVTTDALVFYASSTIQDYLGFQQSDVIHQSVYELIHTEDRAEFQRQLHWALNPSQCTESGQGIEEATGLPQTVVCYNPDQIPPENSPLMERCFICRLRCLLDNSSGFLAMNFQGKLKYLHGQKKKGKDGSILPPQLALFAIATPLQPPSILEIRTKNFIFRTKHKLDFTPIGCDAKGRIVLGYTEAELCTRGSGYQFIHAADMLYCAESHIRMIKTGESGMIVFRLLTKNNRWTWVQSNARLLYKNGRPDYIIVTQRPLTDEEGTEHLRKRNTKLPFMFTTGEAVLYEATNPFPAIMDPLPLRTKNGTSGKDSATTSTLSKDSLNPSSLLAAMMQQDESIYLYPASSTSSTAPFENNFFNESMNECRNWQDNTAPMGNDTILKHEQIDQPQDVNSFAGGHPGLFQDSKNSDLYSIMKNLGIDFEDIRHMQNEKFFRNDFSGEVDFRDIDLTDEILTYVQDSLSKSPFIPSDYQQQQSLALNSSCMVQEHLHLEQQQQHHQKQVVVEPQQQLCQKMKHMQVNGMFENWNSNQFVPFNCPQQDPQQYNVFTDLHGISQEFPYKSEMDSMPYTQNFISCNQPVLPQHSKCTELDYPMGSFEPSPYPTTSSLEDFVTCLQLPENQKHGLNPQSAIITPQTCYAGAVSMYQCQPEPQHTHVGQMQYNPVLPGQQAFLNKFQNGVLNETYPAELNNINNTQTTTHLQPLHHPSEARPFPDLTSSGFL
Assay: AhR Activation in Caco-2 Cells Through CYP1A1 mRNA Expression
Conditions: overnight
Procedure: Caco-2 cells from American Type Culture Collection (ATCC) were plated in a sterile tissue culture treated 96-well plate (ThermoFisher) at 8.0×10^5 cells per well, and grown overnight at 37° C., 5% CO2 in DMEM complete (Gibco) in order to achieve confluence. After the incubation medium was aspirated off of the Caco-2 monolayers, tissues were then washed with 200 μL of warmed PBS solution, and subsequently 190 μL of pre-warmed growth medium was added to each well. Compounds of interest were diluted at a 20× concentration in growth medium containing 2% DMSO, and 10 μL of compound solutions were added to respective wells in triplicate. Compounds where incubated overnight at 37° C., 5% CO2. 2-(1′H-indole-3′-carbonyl)-thiazole-4-carboxylic acid methyl ester (ITE) was used as the positive control for AhR activation at 1 and 100 μM concentrations. At the end of the incubation, medium was aspirated off of the Caco-2 cells, and washed with 100 μL of cold PBS solution. RNA was extracted via the TaqMan™ Gene Expression Cells-to-CT™ Kit (ThermoFisher) according to the manufacturer's protocol. The QuantStudio 6 Flex (Applied Biosciences) was used to analyze mRNA levels of CYP1A1 using GAPDH as the endogenous control. TaqMan™ probe sets for both genes were acquired from ThermoFisher. Samples were run in triplicate and data was analyzed using the QuantStudio software and reported as linear (Table 6) and log 2(ΔΔCT) values. Statistical analysis was performed using a two-tailed t-test comparing CYP1A1 levels in the presence of each individual compound to the vehicle negative control.

c1ccc2[nH]ccc2c1 [indole]
Average CYP1A1 mRNA levels (Conc. 1000.0 μM): + (+ = >2-fold Vehicle)

COC(=O)c1csc(C(=O)c2c[nH]c3ccccc23)n1 [ITE, 2-(1′H-indole-3′-carbonyl)-thiazole-4-carboxylic acid methyl ester, reference compound]
Average CYP1A1 mRNA levels (Conc. 1.0 μM): +++ (+++ = >10-fold Vehicle)

CC(O)CCO (stereo not drawn) [butanediol]
Average CYP1A1 mRNA levels (Conc. 500.0 μM): − (− = <2-fold Vehicle)
